According to article PMC2346451 (PLoS ONE, 2008):
Like-named read-outs stand apart in the source and are kept apart here.

How the values were obtained:
[1] = in humans; cited from earlier work
mouse TRPV3 (mTRPV3) = molecular target: T1, mouse TRPV3 (mTRPV3) (Mus musculus, UniProt Q8K424); assay: Whole-cell patch clamp of mouse TRPV3 expressed in HEK-293T cells; assay type: cell-based; conditions: for Increase of agonist-evoked current prior to onset of inhibition: citral 1 mM, n = 7
T1 sequence (Q8K424 1-791): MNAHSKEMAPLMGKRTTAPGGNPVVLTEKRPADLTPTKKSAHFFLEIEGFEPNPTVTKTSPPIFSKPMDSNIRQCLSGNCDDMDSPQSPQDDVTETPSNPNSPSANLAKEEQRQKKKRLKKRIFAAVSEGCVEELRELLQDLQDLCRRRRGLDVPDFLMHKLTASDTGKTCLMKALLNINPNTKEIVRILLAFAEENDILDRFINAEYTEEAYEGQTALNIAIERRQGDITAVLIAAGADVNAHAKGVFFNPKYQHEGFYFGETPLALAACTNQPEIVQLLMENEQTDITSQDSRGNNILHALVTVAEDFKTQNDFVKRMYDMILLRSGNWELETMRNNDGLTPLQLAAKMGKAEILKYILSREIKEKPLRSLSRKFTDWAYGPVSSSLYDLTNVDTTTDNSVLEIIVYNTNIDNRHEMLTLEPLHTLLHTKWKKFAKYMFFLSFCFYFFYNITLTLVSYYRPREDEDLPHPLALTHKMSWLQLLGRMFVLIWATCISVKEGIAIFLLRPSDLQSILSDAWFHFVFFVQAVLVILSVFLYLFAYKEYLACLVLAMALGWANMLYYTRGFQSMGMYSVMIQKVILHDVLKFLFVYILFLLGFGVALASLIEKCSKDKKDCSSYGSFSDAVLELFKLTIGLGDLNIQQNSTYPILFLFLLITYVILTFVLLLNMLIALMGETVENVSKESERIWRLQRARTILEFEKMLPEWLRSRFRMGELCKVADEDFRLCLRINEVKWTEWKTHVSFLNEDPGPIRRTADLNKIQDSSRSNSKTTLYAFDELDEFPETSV
Procedure: Transformed human embryonic kidney-293 (HEK-293T) cells were grown in Dulbecco's modified Eagle's medium (DMEM)+F-12 supplemented with 10% fetal calf serum, and 1% penicillin/streptomycin in 5% CO2 at 37°C. Cells grown to 90% confluence in 35 mm Petri dishes were transiently transfected with plasmid DNA encoding a TRP channel construct (1 µg). Rat TRPV1 (rTRPV1) was cloned into an enhanced green fluorescent protein-containing vector (pTracer-CMV2; Invitrogen, Carlsbad, CA). Chicken TRPV1 (cTRPV1), the chicken rat TRPV1 chimera (crcTRPV1), rat TRPV2 (rTRPV2), mouse TRPV3 (mTRPV3), mouse TRPV4 (mTRPV4), rat TRPM8 (rTRPM8), and rat TRPA1 (rTRPA1), were cloned into pcDNA3 and co-transfected with enhanced green fluorescent protein (0.1 µg) to follow expression. The cTRPV1 and crcTRPV1 clones were kindly provided by Dr. David Julius. Recordings were carried out 24–36 hours after transfection. Cells were split via trypsin EDTA, plated on glass coverslips at 5–10% confluence, and used 2–3 hours later.
Electrophysiological experiments were performed using the whole-cell patch-clamp technique at room temperature. Modified Ringer's solution with low chloride and nominal calcium contained (in mM): 130 sodium hydroxide, 5 potassium chloride, 1 magnesium chloride, 10 sodium 4-(2-hydroxyethyl)-1-piperazineethanesulfonic acid, 10 2-(N-morpholino)ethanesulfonic acid, and 20 glucose (pH 7.4; 310 milli-osmolar). […] 2 mM calcium chloride was included in the external solution where noted. To activate TRPV1, the modified Ringer's solution was made at pH 5 (low pH solution) and the chloride concentration was kept to a minimum to prevent contamination of the TRPV1 currents with acid-activated chloride currents. For recordings from heterologously expressing cells, the internal pipette solution contained (in mM): 125 cesium-Methanesulfonate, 10 cesium (1.2-bis(o-aminophenoxy)ethane-N,N,N',N'-tetraacetic acid, 8 sodium chloride, 4 magnesium adenosine triphosphate, and 10 HEPES (pH 7.2; 290 mOSM; nominal free calcium concentrations). For TRPA1 and dorsal root ganglion recordings, the internal pipette solution contained (in mM): 110 cesium-Methanesulfonate, 0.5 cesium4BAPTA, 8 sodium chloride, 0.2 calcium chloride, 4 magnesium-ATP, 4 sodium-GTP, and 10 4-(2-hydroxyethyl)-1-piperazineethanesulfonic acid (pH 7.2; 290 mOSM; 100 nM free calcium internal). MaxChelator was used to calculate the free calcium concentration (http://www.stanford.edu/cpatton/maxc.html).
Recordings were obtained using an Axopatch 200B amplifier, Digidata 1322A analog-to-digital converter, and pClamp 8.01 software (Molecular Devices, Union City, CA). Data were low-pass filtered at 2 kHz and digitized at 5 kHz. Borosilicate glass pipettes (World Precision Instruments, Sarasota, FL) were typically 3 MΩ pipette resistance after fire polishing. Cell capacitance was measured for each cell, and access resistance compensated to ∼80%. Recordings were begun ∼5 minutes after initial rupture to ensure initial steady state conditions. Current-voltage (I-V) relations were obtained using a ramp protocol. Voltage ramps (400 ms) from −100 to +40 or +100 mV were applied every 1–2 seconds and the holding potential was either −70 mV or 0 mV (see Figure Legends). A 40 ms step was added at the beginning and end of the ramp (i.e. at −100 mV, +40 mV or +100 mV). Liquid junction potentials were not corrected.
The dose response curves were fit with the Hill equation, where [drawing 8] and [A] is the concentration of agonist or blocker, N is the Hill coefficient, and KD is the [A] for Imeasured/Imax = 0.5. The term apparent dissociation constant is used in place of the half concentration of excitation and inhibition. […] Averaged data are presented as mean±standard error (S.E.) throughout. Statistical analysis included paired and unpaired Student's t-test comparisons of the data; p values are reported in the text.

CC(C)=CCCC(C)=CC=O [citral, 3,7-dimethyl-2,6-octadienal]
Concentration at which therapeutic effects have been attributed [1]: 1 to 100 µM | Hill coefficient (activation) (mouse TRPV3 (mTRPV3)): 22.3 | Reversibility of citral inhibition of agonist-evoked current (mouse TRPV3 (mTRPV3)): essentially irreversible | Increase of agonist-evoked current prior to onset of inhibition (mouse TRPV3 (mTRPV3); +100 mV): 1.3±0.1 fold | Increase of agonist-evoked current prior to onset of inhibition (mouse TRPV3 (mTRPV3); −100 mV): 1.7±0.3 fold | Kd (mouse TRPV3 (mTRPV3); citral activation, nominal external calcium, read-out: Activation KD, app): 926 µM | Hill coefficient (inhibition) (mouse TRPV3 (mTRPV3); citral block of 2-aminoethyldiphenyl borate-evoked current): 4.0 | Kd (mouse TRPV3 (mTRPV3); citral block of current evoked by 700 µM 2-aminoethyldiphenyl borate, read-out: Inhibition KD, app): 465 µM | Agonist efficacy I2-APB (100 µM)/Icitral (1 mM) (mouse TRPV3 (mTRPV3); fold larger, −40 mV, n = 6): I2-APB (100 µM)/Icitral (1 mM) 25±14 fold larger (n = 6; −40 mV) | Time for >50% inhibition of peak TRP current in continued presence of citral (mouse TRPV3 (mTRPV3); n = 6): ≤ 6 s | Increase of inward ITRPV3 above baseline (mouse TRPV3 (mTRPV3); −40 mV): 38 fold
